We go through 17 compounds from US10889573B2, “Anthelmintic quinoline-3-carboxamide derivatives” (Bayer Animal Health GMBH, priority 2016, dated 2021).

In data set [1] the test system is Dirofilaria immitis microfilariae. Briefly: In vitro assay 3: Dirofilaria immitis microfilariae (DIROIM L1), motility. The following applies: 72 h, read-out: EC50 (reduction of motility), 72 h incubation.
Data set [2] deals with Litomosoides sigmodontis third-stage larvae. The following applies: 72 h, read-out: EC50 (reduction of motility).
Method: In Vitro Assay 5: Litomosoides sigmodontis (LTMOSI L3)
10 Litomosoides sigmodontis third-stage larvae, which were freshly isolated from the pleural cavity of an infected rodent, were added to wells of a microtitre plate containing a nutrient medium and the test compound in DMSO. Compounds were tested in concentration-response assay in duplicate. Larvae exposed to DMSO and no test compounds were used as negative controls. Larvae were evaluated after 72 h of incubation with the compound. Efficacy was determined as the reduction of motility in comparison to the negative control. Based on the evaluation of a wide concentration range, concentration-response curves as well as EC50-values were calculated.
Data set [3] relates to Dirofilaria immitis third-stage larvae. The experiment in a line: In vitro assay 4: Dirofilaria immitis (DIROIM L4), motility. The settings on record: 72 h, read-out: EC50 (reduction of motility).
In data set [4] the target is C. elegans Slo-1a (Caenorhabditis elegans, UniProt Q95V25). The settings on record: pE50 (negative decadic logarithm of EC50), CHO cells expressing C. elegans Slo-1a, voltage sensitive dye.
Sequence of C. elegans Slo-1a (Q95V25 whole entry): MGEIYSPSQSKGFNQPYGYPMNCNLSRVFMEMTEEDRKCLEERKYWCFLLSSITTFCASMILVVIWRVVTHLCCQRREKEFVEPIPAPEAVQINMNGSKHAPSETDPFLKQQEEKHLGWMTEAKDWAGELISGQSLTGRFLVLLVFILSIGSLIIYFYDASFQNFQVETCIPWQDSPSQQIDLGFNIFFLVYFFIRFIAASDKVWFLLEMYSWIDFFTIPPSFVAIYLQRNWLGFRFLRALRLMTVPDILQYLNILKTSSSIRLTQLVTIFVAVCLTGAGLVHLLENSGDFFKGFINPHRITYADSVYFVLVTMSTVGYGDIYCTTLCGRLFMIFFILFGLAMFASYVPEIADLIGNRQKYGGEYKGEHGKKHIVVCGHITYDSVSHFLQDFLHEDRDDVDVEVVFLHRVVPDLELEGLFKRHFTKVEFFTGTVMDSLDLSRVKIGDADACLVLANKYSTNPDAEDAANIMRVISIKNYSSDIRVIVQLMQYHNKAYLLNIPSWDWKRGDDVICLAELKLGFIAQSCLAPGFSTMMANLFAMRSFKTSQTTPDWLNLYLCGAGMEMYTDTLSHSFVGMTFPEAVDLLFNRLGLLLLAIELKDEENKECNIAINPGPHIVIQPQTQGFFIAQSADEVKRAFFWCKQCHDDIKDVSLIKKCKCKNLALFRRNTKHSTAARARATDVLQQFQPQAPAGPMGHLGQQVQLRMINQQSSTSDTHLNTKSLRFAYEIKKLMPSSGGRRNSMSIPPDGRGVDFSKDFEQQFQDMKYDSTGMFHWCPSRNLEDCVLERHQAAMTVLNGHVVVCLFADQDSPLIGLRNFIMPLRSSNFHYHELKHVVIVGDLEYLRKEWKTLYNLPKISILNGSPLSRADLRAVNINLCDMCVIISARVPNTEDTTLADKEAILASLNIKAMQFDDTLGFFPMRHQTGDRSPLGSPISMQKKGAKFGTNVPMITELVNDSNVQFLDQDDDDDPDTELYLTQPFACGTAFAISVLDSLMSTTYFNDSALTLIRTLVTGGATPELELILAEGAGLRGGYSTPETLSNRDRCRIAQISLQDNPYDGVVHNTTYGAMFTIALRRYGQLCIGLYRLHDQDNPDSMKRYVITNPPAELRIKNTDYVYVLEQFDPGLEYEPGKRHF
For data set [5], the system named is Haemonchus contortus. The settings on record: 120 h, read-out: activity (larval mortality).
Method: In Vitro Assay 7: Haemonchus contortus (HAEMCO L3)
Solvent: dimethyl sulfoxide
Approximately 40 larvae of the red stomach worm (Haemonchus contortus) are transferred into a test tube containing compound solution.
After 5 days the percentage of larval mortality is recorded. 100% efficacy means all larvae are killed, 0% efficacy means no larvae are killed.
Data set [6] relates to Nippostrongylus brasiliensis. Briefly: In vitro assay 2: Nippostrongylus brasiliensis (NIPOBR), acetylcholine esterase readout. The settings on record: read-out: activity (reduction of AChE compared to negative control); for inhibition at 1 µg/mL: 1 μg/ml; for inhibition at 10 µg/mL: 10 μg/ml. The method, boiled down:
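Readout was acetylcholine esterase activity released into the medium, compared with negative control, after exposing adult worms to compounds at final 10 ppm (10 μg/ml) or 1 ppm (1 μg/ml). Worms were first washed in antibiotic/amphotericin B-containing saline; compounds were dissolved in DMSO.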

In data set [7] the test system is Cooperia curticei. The settings on record: Cooperia curticei, 120 h, read-out: activity (larval mortality).
Method: In Vitro Assay 6: Cooperia curticei (COOPCU L3)
Solvent: dimethyl sulfoxide
Approximately 40 nematode larvae (Cooperia curticei) are transferred into a test tube containing the compound solution.
After 5 days percentage of larval mortality is recorded. 100% efficacy means all larvae are killed; 0% efficacy means no larvae are killed.
Data set [8] can be described thus: log P by HPLC on reversed phase columns (Method L0).

Take `O=C(N[C@H]1CCc2ccccc21)c1cnc2c(-c3cc(Cl)cc(Cl)c3)cccc2c1Cl` [Example 3, 4-chloro-8-(3,5-dichlorophenyl)-N-[(1S)-2,3-dihydro-1H-inden-1-yl]quinoline-3-carboxamide]: the EC50 (as a rule, the concentration giving half of the maximal effect) in data set [1] is under 1 µg/mL; in data set [2], under 1 µg/mL; in data set [3], under 1 µg/mL; in data set [4], 3.16 to 31.6 nM.
`Cc1cc(-c2cc(Cl)cc(Cl)c2)c2ncc(C(=O)N[C@H]3CCOc4ccccc43)c(N(C)C)c2c1` [Example 12]: in data set [5], the mortality (usually the percentage killed) at 20 ppm was 80%. The EC50 in data set [1] is under 0.1 µg/mL; in data set [2] it was under 0.1 µg/mL; in data set [3], under 0.1 µg/mL; in data set [4], under 3.16 nM. Further, the inhibition at 1 µg/mL in data set [6] is over 80%. For the same compound, the inhibition at 10 µg/mL in data set [6] is over 80%.
Consider `O=C(N[C@H]1CCOc2ccccc21)c1cnc2c(-c3cc(Cl)cc(Cl)c3)cccc2c1N1CCOCC1` [Example 17], for which the mortality at 4 ppm in data set [5] and in data set [7] was 100% in each case. In addition, the mortality at 20 ppm in data set [5] and in data set [7] was 100% in each case. The EC50 in data set [1] is under 0.1 µg/mL; in data set [2] it was under 0.1 µg/mL; in data set [3], under 0.1 µg/mL; in data set [4], under 3.16 nM. Besides, the inhibition at 1 µg/mL in data set [6] was over 80%. For the same compound, the inhibition at 10 µg/mL in data set [6] was over 80%.
Take `CNc1c(C(=O)N[C@H]2CCOc3ccccc32)cnc2c(-c3cc(Cl)cc(Cl)c3)cccc12` [Example 24]: the mortality at 4 ppm in data set [5] and in data set [7] was 100% throughout. Also, the mortality at 20 ppm in data set [5] and in data set [7] was 100% throughout. The EC50 in data set [1] is under 0.1 µg/mL; in data set [2], under 0.1 µg/mL; in data set [3], under 0.1 µg/mL; in data set [4], under 3.16 nM. Also, in data set [6], the inhibition at 1 µg/mL was over 80%. Besides, the inhibition at 10 µg/mL in data set [6] is over 80%.
Take `CN(C)c1c(C(=O)N[C@H]2CCOc3ccccc32)cnc2c(-c3cc(Cl)ccc3F)cccc12` [Example 37]: the mortality at 4 ppm in data set [5] and in data set [7] was 100% in each case. For the same compound, the mortality at 20 ppm in data set [5] and in data set [7] was 100% each time. Besides, the EC50 is under 0.1 µg/mL in data set [1], under 0.1 µg/mL in data set [2], under 0.1 µg/mL in data set [3] and under 3.16 nM in data set [4]. Further, the inhibition at 1 µg/mL in data set [6] is over 80%. The inhibition at 10 µg/mL in data set [6] was over 80%.
For the compound `O=C(N[C@H]1CCOc2ccccc21)c1cnc2c(-c3cccc(Cl)c3Cl)cccc2c1N1CCOCC1` [Example 52, 8-(2,3-dichlorophenyl)-N-[(4S)-3,4-dihydro-2H-chromen-4-yl]-4-(morpholin-4-yl)quinoline-3-carboxamide], the mortality at 4 ppm in data set [5] and in data set [7] was 100% throughout. The mortality at 20 ppm in data set [5] and in data set [7] was 100% throughout. For the same compound, the EC50 was under 0.1 µg/mL in data set [1], under 0.1 µg/mL in data set [2], under 0.1 µg/mL in data set [3] and under 3.16 nM in data set [4]. In data set [6], the inhibition at 1 µg/mL is over 80%. In addition, in data set [6], the inhibition at 10 µg/mL is over 80%.
Take `COc1c(F)ccc(-c2cccc3c(N4CCOCC4)c(C(=O)N[C@H]4CCOc5ccccc54)cnc23)c1F` [Example 53]: the mortality at 4 ppm came to 80% in data set [5] and 100% in data set [7]. Besides, the mortality at 20 ppm in data set [5] and in data set [7] was 100% throughout. Moreover, the EC50 in data set [1] is under 0.1 µg/mL; in data set [2] it was under 0.1 µg/mL; in data set [3] it was under 0.1 µg/mL; in data set [4], under 3.16 nM. Also, in data set [6], the inhibition at 1 µg/mL is over 80%. The inhibition at 10 µg/mL in data set [6] was over 80%.
As to `CN(C)c1c(C(=O)N[C@H]2CCOc3ccccc32)cnc2c(-c3cccc4[nH]ccc34)cccc12` [Example 73], the concentration for a half-maximal effect (EC50) in data set [1] is under 0.1 µg/mL; in data set [2], under 1 µg/mL; in data set [3] it was under 0.1 µg/mL; in data set [4], 3.16 to 31.6 nM. Also, the inhibition at 1 µg/mL in data set [6] is over 80%. Also, in data set [6], the inhibition at 10 µg/mL was over 80%.
Regarding `CCOc1c(C(=O)N[C@H]2CCc3ccccc32)cnc2c(-c3cc(Cl)cc(Cl)c3)cccc12` [Example 134, 8-(3,5-dichlorophenyl)-N-[(1S)-2,3-dihydro-1H-inden-1-yl]-4-ethoxyquinoline-3-carboxamide], the mortality at 4 ppm in data set [5] and in data set [7] was 100% throughout. Also, the mortality at 20 ppm in data set [5] and in data set [7] was 100% each time. Besides, the EC50 in data set [1], in data set [2] and in data set [3] was under 0.1 µg/mL in each case. Further, the inhibition at 1 µg/mL in data set [6] was over 80%. Also, the inhibition at 10 µg/mL in data set [6] was over 80%.
Turning to `CN(C)c1c(C(=O)N[C@H]2CCOc3ccccc32)cnc2c(-c3cccc(Cl)c3)c(F)ccc12` [Example 141, 8-(3-chlorophenyl)-N-[(4S)-3,4-dihydro-2H-chromen-4-yl]-4-(dimethyl-amino)-7-fluoroquinoline-3-carboxamide], the EC50 was under 0.1 µg/mL in data set [1], under 0.1 µg/mL in data set [2], under 0.1 µg/mL in data set [3] and under 3.16 nM in data set [4]. Besides, the inhibition at 10 µg/mL in data set [6] is over 80%.
With `O=C(N[C@H]1CCOc2ccccc21)c1cnc2c(-c3cc(F)cc(Cl)c3)c(F)ccc2c1N1CCOCC1` [Example 143], the mortality at 4 ppm in data set [5] and in data set [7] was 100% throughout. The mortality at 20 ppm in data set [5] and in data set [7] was 100% in each case. In addition, the EC50 was under 0.1 µg/mL in data set [1], under 0.1 µg/mL in data set [2], under 0.1 µg/mL in data set [3] and under 3.16 nM in data set [4]. Also, the inhibition at 1 µg/mL in data set [6] is over 80%. Also, the inhibition at 10 µg/mL in data set [6] is over 80%.
Consider `CN(CC(=O)O)c1c(C(=O)N[C@H]2CCOc3ccccc32)cnc2c(-c3cc(Cl)cc(Cl)c3)cccc12` [Example 150, N-{8-(3,5-dichlorophenyl)-3-[(4S)-3,4-dihydro-2H-chromen-4-ylcarbamoyl]quinolin-4-yl}-N-methylglycine], for which the mortality at 4 ppm in data set [5] was determined as 80%. Also, the mortality at 20 ppm stood at 90% in data set [5] and 100% in data set [7]. In addition, the results for the EC50 in data set [1], in data set [3] and in data set [4] were under 0.1 µg/mL, under 1 µg/mL and 3.16 to 31.6 nM, respectively. Moreover, the chromatographic logP – broadly, lipophilicity estimated from chromatographic retention – in data set [8] was 3.1. Also, the inhibition at 1 µg/mL in data set [6] is over 80%.
As for `CN(c1c(C(=O)N[C@H]2CCOc3ccccc32)cnc2c(-c3cccc(Cl)c3Cl)cccc12)C1COC1` [Example 331, 8-(2,3-dichlorophenyl)-N-[(4S)-3,4-dihydro-2H-chromen-4-yl]-4-[methyl(oxetan-3-yl)amino]-quinoline-3-carboxamide], the mortality at 20 ppm in data set [5] was 100%; in data set [7], 90%. In addition, the EC50 in data set [1] was under 0.1 µg/mL; in data set [3] it was under 0.1 µg/mL; in data set [4], under 3.16 nM. For the same compound, the chromatographic logP in data set [8] was 3.14. The inhibition at 1 µg/mL in data set [6] is over 80%.
With `CCOc1c(C(=O)N[C@H]2CCOc3ccccc32)cnc2c(-c3cc(Cl)cc(Cl)c3)cccc12` [Example 341], the mortality at 4 ppm in data set [5] was determined as 80%; in data set [7], 90%. Besides, the mortality at 20 ppm in data set [5] was determined as 80%; in data set [7] it was 100%. Further, the EC50 in data set [1] was under 0.1 µg/mL; in data set [2], under 0.1 µg/mL; in data set [3], under 0.1 µg/mL; in data set [4] it was under 3.16 nM. The inhibition at 1 µg/mL in data set [6] is over 80%. In addition, the inhibition at 10 µg/mL in data set [6] is over 80%.
Take `CCc1cc(Cl)cc(-c2cccc3c(CC)c(C(=O)N[C@H]4CCOc5ccccc54)cnc23)c1` [Example 351, 8-(3-chloro-5-ethylphenyl)-N-[(4S)-3,4-dihydro-2H-chromen-4-yl]-4-ethylquinoline-3-carboxamide]: the EC50 was under 0.1 µg/mL in data set [1], under 0.1 µg/mL in data set [3] and under 3.16 nM in data set [4]. Further, the chromatographic logP in data set [8] was determined as 5.1.
For the compound `COc1c(C(=O)N[C@H]2CCOc3ccccc32)cnc2c(-c3cc(Cl)cc(Cl)c3)cccc12` [Example 373, 8-(3,5-dichlorophenyl)-N-[(4S)-3,4-dihydro-2H-chromen-4-yl]-4-methoxyquinoline-3-carboxamide], the mortality at 4 ppm in data set [5] and in data set [7] was 100% each time. The mortality at 20 ppm in data set [5] and in data set [7] was 100% in each case. Also, the concentration for a half-maximal effect (EC50) was under 1 µg/mL in data set [2], under 1 µg/mL in data set [3] and under 3.16 nM in data set [4]. The inhibition at 1 µg/mL in data set [6] was over 80%. For the same compound, the inhibition at 10 µg/mL in data set [6] is over 80%.
In the case of `O=C(N[C@H]1CCOc2ccccc21)c1cnc2c(-c3cc(Cl)cc(Cl)c3)cccc2c1N1CC(F)(F)C1` [Example 394], the mortality at 4 ppm in data set [5] was determined as 80%. For the same compound, the mortality at 20 ppm in data set [5] and in data set [7] was 80% throughout. For the same compound, the EC50 in data set [1] was under 0.1 µg/mL; in data set [2], under 0.1 µg/mL; in data set [3], under 0.1 µg/mL; in data set [4], 3.16 to 31.6 nM. In addition, the inhibition at 1 µg/mL in data set [6] is over 80%.
